Tests used:
Format in all cases: functional
Reticulitermes speratus [1] = assay: Antifeedant activity against Reticulitermes speratus assessed as antifeedant consumption at 100 ug/disk after 30 days by no-choice bioassay
Reticulitermes speratus [2] = assay: Antifeedant activity against Reticulitermes speratus assessed as antifeedant consumption at 200 ug/disk after 30 days by no-choice bioassay
Reticulitermes speratus [3] = assay: Antifeedant activity against Reticulitermes speratus assessed as antifeedant consumption at 150 ug/disk after 30 days by no-choice bioassay
Reticulitermes speratus [4] = assay: Antifeedant activity against Reticulitermes speratus assessed as antifeedant consumption at 75 ug/disk after 30 days by no-choice bioassay
Reticulitermes speratus [5] = assay: Antifeedant activity against Reticulitermes speratus assessed per disk after 30 days by no-choice bioassay
Reticulitermes speratus [6] = assay: Antifeedant activity against Reticulitermes speratus assessed as reduction in feeding at 100 to 200 ug/disk after 30 days by no-choice bioassay relative to vehicle-control; parameters: scale not given: the % may be the effect or the level left
Reticulitermes speratus [7] = assay: Antifeedant activity against Reticulitermes speratus assessed as antifeedant consumption at 50 ug/disk after 30 days by no-choice bioassay
Reticulitermes speratus [8] = assay: Antifeedant activity against Reticulitermes speratus assessed as survival at 100 ug/disk after 30 days by no-choice bioassay (reference value: 92.5%); conditions: 720 h
Reticulitermes speratus [9] = assay: Antifeedant activity against Reticulitermes speratus assessed as survival at 300 ug/disk after 30 days by no-choice bioassay (reference value: 92.5%); conditions: 720 h
Reticulitermes speratus [10] = assay: Antifeedant activity against Reticulitermes speratus assessed as survival at 200 ug/disk after 30 days by no-choice bioassay (reference value: 92.5%); conditions: 720 h
Reticulitermes speratus [11] = assay: Antifeedant activity against Reticulitermes speratus assessed as survival at 400 ug/disk after 30 days by no-choice bioassay (reference value: 92.5%); conditions: 720 h
Reticulitermes speratus [12] = assay: Antifeedant activity against Reticulitermes speratus assessed as survival at 50 ug/disk after 30 days by no-choice bioassay (reference value: 92.5%); conditions: 720 h
Reticulitermes speratus [13] = assay: Antifeedant activity against Reticulitermes speratus assessed as antifeedant consumption at 300 ug/disk after 30 days by no-choice bioassay
Reticulitermes speratus [14] = assay: Antifeedant activity against Reticulitermes speratus assessed as antifeedant consumption at 400 ug/disk after 30 days by no-choice bioassay
Reticulitermes speratus [15] = assay: Antifeedant activity against Reticulitermes speratus assessed as antifeedant consumption at 500 ug/disk after 30 days by no-choice bioassay
Reticulitermes speratus [16] = assay: Antifeedant activity against Reticulitermes speratus assessed as survival at 500 ug/disk after 30 days by no-choice bioassay (reference value: 92.5%); conditions: 720 h
Reticulitermes speratus [17] = assay: Antifeedant activity against Reticulitermes speratus assessed as survival at 7.5 ug/disk after 30 days by no-choice bioassay (reference value: 92.5%); conditions: 720 h
Reticulitermes speratus [18] = assay: Antifeedant activity against Reticulitermes speratus assessed as survival at 10 ug/disk after 30 days by no-choice bioassay (reference value: 92.5%); conditions: 720 h
Reticulitermes speratus [19] = assay: Antifeedant activity against Reticulitermes speratus assessed as antifeedant consumption at 10 ug/disk after 30 days by no-choice bioassay
Reticulitermes speratus [20] = assay: Antifeedant activity against Reticulitermes speratus assessed as survival at 5 ug/disk after 30 days by no-choice bioassay (reference value: 92.5%); conditions: 720 h
Reticulitermes speratus [21] = assay: Antifeedant activity against Reticulitermes speratus assessed as antifeedant consumption at 7.5 ug/disk after 30 days by no-choice bioassay
Reticulitermes speratus [22] = assay: Antifeedant activity against Reticulitermes speratus assessed as antifeedant consumption at 5 ug/disk after 30 days by no-choice bioassay
Reticulitermes speratus [23] = assay: Antifeedant activity against Reticulitermes speratus assessed as reduction in feeding at 50 ug/disk after 30 days by no-choice bioassay relative to vehicle-control; parameters: scale not given: the % may be the effect or the level left
Reticulitermes speratus [24] = assay: Antifeedant activity against Reticulitermes speratus assessed as antifeedant consumption at 25 ug/disk after 30 days by no-choice bioassay
Reticulitermes speratus [25] = assay: Antifeedant activity against Reticulitermes speratus assessed as survival at 25 ug/disk after 30 days by no-choice bioassay (reference value: 92.5%); conditions: 720 h
Reticulitermes speratus [26] = assay: Antifeedant activity against Reticulitermes speratus assessed as survival at 125 ug/disk after 30 days by no-choice bioassay (reference value: 92.5%); conditions: 720 h
Reticulitermes speratus [27] = assay: Antifeedant activity against Reticulitermes speratus assessed as survival at 75 ug/disk after 30 days by no-choice bioassay (reference value: 92.5%); conditions: 720 h
Reticulitermes speratus [28] = assay: Antifeedant activity against Reticulitermes speratus assessed as antifeedant consumption at 125 ug/disk after 30 days by no-choice bioassay
Reticulitermes speratus [29] = assay: Antifeedant activity against Reticulitermes speratus assessed as survival at 150 ug/disk after 30 days by no-choice bioassay (reference value: 92.5%); conditions: 720 h

SMILES | Activity (Reticulitermes speratus [1]) | PC50 (Reticulitermes speratus [5]) | PC95 (Reticulitermes speratus [5]) | Activity (Reticulitermes speratus [6]) | Activity (Reticulitermes speratus [7]) | survival at 100 µg/disc (Reticulitermes speratus [8]) | survival at 300 µg/disc (Reticulitermes speratus [9]) | survival at 200 µg/disc (Reticulitermes speratus [10]) | survival at 400 µg/disc (Reticulitermes speratus [11]) | survival at 50 µg/disc (Reticulitermes speratus [12]) | other results
COC(=O)C[C@H]1[C@]2(C)C3=C(C)[C@H](c4ccoc4)C[C@@H]3O[C@@H]2[C@H](O)[C@@H]2[C@@]1(C)C(=O)C=C[C@@]2(C)O | 19.9 µg | 96 µg | 245.4 µg | 80% | 16.3 µg | – | – | – | – | – | Activity (Reticulitermes speratus [2]): 6.4 µg; Activity (Reticulitermes speratus [3]): 10 µg; Activity (Reticulitermes speratus [4]): 25.2 µg
CC(=O)O[C@@H]1C[C@H]2C(C)(C)C(=O)C=C[C@]2(C)[C@H]2CC[C@]3(C)C(=CC(=O)[C@@H]3c3ccoc3)[C@@]21C [17-EPIAZADIRADIONE] | – | – | – | – | – | 85.5% | 86.5% | 85.5% | 86.5% | 87% | –
CC(=O)O[C@@H]1C[C@H]2C(C)(C)C(=O)C=C[C@]2(C)[C@H]2CC[C@]3(C)C(=CC(=O)[C@@]3(O)c3ccoc3)[C@@]21C [17-HYDROXYAZADIRADIONE] | 16.5 µg | 67.8 µg | 235.6 µg | 80% | 17.8 µg | 61% | 33.5% | 50% | – | 73% | Activity (Reticulitermes speratus [2]): 9.4 µg; Activity (Reticulitermes speratus [13]): 8.6 µg
CC(=O)O[C@@H]1C[C@H]2C(C)(C)C(=O)C=C[C@]2(C)[C@H]2CC[C@]3(C)C(=CC(=O)[C@H]3c3ccoc3)[C@@]21C [AZADIRADIONE] | 55.1 µg | 238.5 µg | 827.5 µg | – | – | 73% | 39% | 65.5% | 24.5% | – | Activity (Reticulitermes speratus [14]): 49.5 µg; Activity (Reticulitermes speratus [2]): 79.3 µg; Activity (Reticulitermes speratus [15]): 2 µg; survival at 500 µg/disc (Reticulitermes speratus [16]): 0.5%; Activity (Reticulitermes speratus [13]): 62.9 µg
CC1(C)C(=O)C=C[C@]2(C)[C@H]3CC[C@@]4(C)[C@H](c5ccoc5)OC(=O)[C@H]5O[C@]54[C@]3(C)[C@H](O)C[C@@H]12 [DEACETYLGEDUNIN] | 7.2 µg | 22.5 µg | 113.7 µg | – | 4.7 µg | 12% | – | – | – | 20% | survival at 7.5 µg/disc (Reticulitermes speratus [17]): 87.3%; survival at 10 µg/disc (Reticulitermes speratus [18]): 73.3%; Activity (Reticulitermes speratus [19]): 3.2 µg; survival at 5 µg/disc (Reticulitermes speratus [20]): 91.3%; Activity (Reticulitermes speratus [21]): 3.1 µg; Activity (Reticulitermes speratus [22]): 2.2 µg; Activity (Reticulitermes speratus [23]): 80.38%; Activity (Reticulitermes speratus [24]): 4.7 µg; survival at 25 µg/disc (Reticulitermes speratus [25]): 45.3%
COC(=O)C[C@H]1[C@]2(C)C3=C(C)[C@H](c4ccoc4)C[C@H]3O[C@@H]2[C@H](O)[C@@H]2[C@]1(C)C(=O)C=C[C@@]2(C)C(=O)OC [DEACETYLNIMBIN] | – | 280.6 µg | 1581.2 µg | – | – | 85% | 74% | 78.5% | – | 87.5% | –
C/C=C(\C)C(=O)O[C@H]1C[C@@H](O)[C@@]2(C)CO[C@H]3[C@H]4O[C@@H]5C[C@@H](c6ccoc6)C(C)=C5[C@@]4(C)[C@H](CC(=O)OC)[C@]1(C)[C@@H]32 [DESACETYL SALANNIN] | – | 55.2 µg | 1373.1 µg | – | – | 72% | 49% | 58% | 44% | – | –
CC(=O)O[C@@H]1C[C@H]2C(C)(C)C(=O)C=C[C@]2(C)[C@H]2CC[C@@]3(C)[C@H](c4ccoc4)C(=O)[C@H]4O[C@]43[C@@]21C [EPOXYAZADIRADIONE] | – | – | – | – | – | 75.5% | 76.5% | 77% | 64% | – | –
CC(=O)O[C@@H]1C[C@H]2C(C)(C)C(=O)C=C[C@]2(C)[C@H]2CC[C@@]3(C)[C@H](c4ccoc4)OC(=O)[C@H]4O[C@]43[C@@]21C [GEDUNIN] | 11 µg | 49 µg | 218.4 µg | 80% | 9 µg | 39.3% | – | – | – | 51.3% | Activity (Reticulitermes speratus [24]): 8.5 µg; survival at 125 µg/disc (Reticulitermes speratus [26]): 23.3%; survival at 75 µg/disc (Reticulitermes speratus [27]): 49.3%; Activity (Reticulitermes speratus [3]): 5 µg; Activity (Reticulitermes speratus [4]): 10.5 µg; survival at 25 µg/disc (Reticulitermes speratus [25]): 82%; Activity (Reticulitermes speratus [28]): 6.8 µg; survival at 150 µg/disc (Reticulitermes speratus [29]): 13.3%
COC(=O)C[C@H]1[C@]2(C)C3=C(C)[C@H](c4ccoc4)C[C@H]3O[C@@H]2[C@H](OC(C)=O)[C@@H]2[C@]1(C)C(=O)C=C[C@@]2(C)C(=O)OC [NIMBIN] | – | – | – | – | – | 84% | 83% | 84.5% | 83% | – | survival at 500 µg/disc (Reticulitermes speratus [16]): 80.5%
C/C=C(/C)C(=O)O[C@H]1C[C@@H](OC(C)=O)[C@@]2(C)CO[C@H]3[C@H]4O[C@@H]5C[C@@H](c6ccoc6)C(C)=C5[C@@]4(C)[C@H](CC(=O)OC)[C@]1(C)[C@@H]32 [SALANNIN] | 1.4 µg | 19.5 µg | 203.3 µg | 80% | 1.8 µg | 40% | – | – | – | 58.7% | Activity (Reticulitermes speratus [24]): 3.7 µg; survival at 125 µg/disc (Reticulitermes speratus [26]): 17.3%; survival at 75 µg/disc (Reticulitermes speratus [27]): 29.3%; Activity (Reticulitermes speratus [3]): 0.5 µg; Activity (Reticulitermes speratus [4]): 0.8 µg; survival at 25 µg/disc (Reticulitermes speratus [25]): 90.7%; Activity (Reticulitermes speratus [28]): 0.8 µg; survival at 150 µg/disc (Reticulitermes speratus [29]): 30.7%

From ChEMBL document CHEMBL3045142, “Several Antifeedants from Neem Oil,Azadirachta indicaA. Juss., againstReticulitermes speratusKolbe (Isoptera: Rhinotermitidae)” (1992)
